Data on 27 compounds can be found in patent US11466016B2, “Pharmaceutical compounds” (priority 2018, dated 2022).

Where a name gives a salt, the structure may show the parent alone.

The target of the first test is SHP2 (Homo sapiens (Human), UniProt Q06124). Briefly: SHP2 Biochemical Assay (DiFMUP conversion, pIRS1 activating peptide).
Chain of SHP2 (Q06124 whole entry): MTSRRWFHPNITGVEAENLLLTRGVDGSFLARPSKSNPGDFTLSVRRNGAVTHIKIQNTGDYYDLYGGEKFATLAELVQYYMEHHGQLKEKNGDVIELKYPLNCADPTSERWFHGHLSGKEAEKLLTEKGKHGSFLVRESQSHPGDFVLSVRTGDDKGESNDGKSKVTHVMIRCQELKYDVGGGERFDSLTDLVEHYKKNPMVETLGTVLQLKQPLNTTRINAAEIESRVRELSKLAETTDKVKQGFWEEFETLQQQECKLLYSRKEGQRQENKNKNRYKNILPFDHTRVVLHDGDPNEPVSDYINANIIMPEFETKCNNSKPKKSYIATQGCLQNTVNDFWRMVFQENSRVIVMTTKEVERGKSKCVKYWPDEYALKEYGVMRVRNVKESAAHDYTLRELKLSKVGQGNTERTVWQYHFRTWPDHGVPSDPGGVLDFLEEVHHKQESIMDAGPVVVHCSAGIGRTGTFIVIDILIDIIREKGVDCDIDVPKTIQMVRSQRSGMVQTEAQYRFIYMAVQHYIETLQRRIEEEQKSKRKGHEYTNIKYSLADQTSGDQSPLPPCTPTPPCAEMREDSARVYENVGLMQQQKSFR
Conditions: not given
The term IC50 denotes the point on the concentration scale where inhibition reaches its midpoint. `Cn1cc2c(Cl)c(-c3n[nH]c4nc(N5[C@@H]6CC[C@H]5[C@@H](F)[C@@H](N)C6)c(CO)nc34)ccc2n1` [Example 81, {6-[(1S,2S,3S,5R)-3-amino-2-fluoro-8-azabicyclo[3.2.1]octan-8-yl]-3-(4-chloro-2-methyl-2H-indazol-5-yl)-1H-pyrazolo[3,4-b]pyrazin-5-yl}methanol] came in with a 50% inhibitory concentration (IC50) of 15 nM.

The test is the same for the next values; noted with them: DiFMUP substrate, 0.25 μM pIRS1 peptide, 30 min pre-incubation; average where more than one data point; read-out: SHP2 (IC50).
`Cc1nc2c(-c3ccc4nn(C(C)C)c(C#N)c4c3Cl)n[nH]c2nc1N1[C@H]2CC[C@@H]1[C@@H](F)[C@@H](N)C2` [Example 145, 5-{6-[(1R,2S,3S,5S)-3-amino-2-fluoro-8-azabicyclo[3.2.1]octan-8-yl]-5-methyl-1H-pyrazolo[3,4-b]pyrazin-3-yl}-4-chloro-2-(propan-2-yl)-2H-indazole-3-carbonitrile, hydrochloride]: the IC50 was 36 nM.
`Cn1cc2c(Cl)c(-c3c[nH]c4nc(N5[C@H]6CC[C@@H]5[C@@H](F)[C@H](N)C6)cnc34)ccc2n1` [Example 67, (1R,2S,3R,5S)-8-[7-(4-chloro-2-methyl-2H-indazol-5-yl)-5H-pyrrolo[2,3-b]pyrazin-3-yl]-2-fluoro-8-azabicyclo[3.2.1]octan-3-amine]: the IC50 stood at 57 nM.
Same read-out and setting: as for `Cc1nc2c(-c3ccc4nn(C)cc4c3Cl)n[nH]c2nc1N1[C@@H]2CC[C@H]1C[C@H](N)C2` [Example 40, exo-8-[3-(4-chloro-2-methyl-2H-indazol-5-yl)-5-methyl-1H-pyrazolo[3,4-b]pyrazin-6-yl]-8-azabicyclo[3.2.1]octan-3-amine, dihydrochloride salt], the figure is 10 nM; as for `Cn1cc2c(Cl)c(-c3c[nH]c4nc(N5C6CCC5CNC6)cnc34)ccc2n1` [Example 9, 4-chloro-5-(3-{3,8-diazabicyclo[3.2.1]octan-8-yl}-5H-pyrrolo[2,3-b]pyrazin-7-yl)-2-methyl-2H-indazole], 26 nM.
On the same count and under the same terms, as for `CCOc1cnc2ccc(-c3n[nH]c4nc(N5[C@H]6CC[C@@H]5[C@@H](F)[C@@H](N)C6)c(C)nc34)c(Cl)c2n1` [Example 139, (1R,2S,3S,5S)-8-[3-(5-chloro-3-ethoxyquinoxalin-6-yl)-5-methyl-1H-pyrazolo[3,4-b]pyrazin-6-yl]-2-fluoro-8-azabicyclo[3.2.1]octan-3-amine], the figure is 22 nM; as for `Cn1cc2c(F)c(-c3c[nH]c4nc(N5[C@@H]6CC[C@H]5C[C@@H](N)C6)cnc34)ccc2n1` [Example 38, endo-8-[7-(4-fluoro-2-methyl-2H-indazol-5-yl)-5H-pyrrolo[2,3-b]pyrazin-3-yl]-8-azabicyclo[3.2.1]octan-3-amine], 53 nM; as for `Cc1nc2c(-c3ccc4ncc(N5CCOCC5)nc4c3Cl)n[nH]c2nc1N1[C@H]2CC[C@@H]1[C@@H](F)[C@@H](N)C2` [Example 148, (1R,2S,3S,5S)-8-{3-[5-chloro-3-(morpholin-4-yl)quinoxalin-6-yl] 5-methyl-1H-pyrazolo[3,4-b]pyrazin-6-yl}-2-fluoro-8-azabicyclo[3.2.1]octan-3-amine], 25 nM.
Regarding `CN(C)c1ccc2ccc(-c3c[nH]c4nc(N5[C@@H]6CC[C@H]5C[C@@H](N)C6)cnc34)c(Cl)c2n1` [Example 22, 7-{3-[endo-3-amino-8-azabicyclo[3.2.1]octan-8-yl]-5H-pyrrolo[2,3-b]pyrazin-7-yl}-8-chloro-N,N-dimethylquinolin-2-amine, hydrochloride salt], the IC50 was 26 nM.
On to `Cn1cc2c(Cl)c(-c3c[nH]c4nc(N5CC[C@H](N)[C@H](F)C5)cnc34)ccc2n1` [Example 33, (3R,4S)-1-[7-(4-chloro-2-methyl-2H-indazol-5-yl)-5H-pyrrolo[2,3-b]pyrazin-3-yl]-3-fluoropiperidin-4-amine, hydrochloride salt], for which the IC50 was found to be 33 nM.
For `Cn1cc2c(Cl)c(-c3c[nH]c4nc(N5[C@H]6CC[C@@H]5[C@@H](F)[C@@H](N)C6)cnc34)ccc2n1` [Example 64, (1R,2S,3S,5S)-8-[7-(4-chloro-2-methyl-2H-indazol-5-yl)-5H-pyrrolo[2,3-b]pyrazin-3-yl]-2-fluoro-8-azabicyclo[3.2.1]octan-3-amine], the IC50 was determined as 7.7 nM.
With `Cc1nc2c(-c3ccc4ncc(N(C)C)nc4c3Cl)n[nH]c2nc1N1[C@H]2CC[C@@H]1[C@@H](F)[C@@H](N)C2` [Example 96, 7-{6-[(1R,2S,3S,5S)-3-amino-2-fluoro-8-azabicyclo[3.2.1]octan-8-yl]-5-methyl-1H-pyrazolo[3,4-b]pyrazin-3-yl}-8-chloro-N,N-dimethylquinoxalin-2-amine], the half-maximal inhibitory concentration (IC50) came to 4.7 nM.
Same read-out and setting: to `Cc1nc2ccc(-c3n[nH]c4nc(N5C6CCC5[C@@H](F)[C@@H](N)C6)c(C)nc34)c(Cl)c2s1` (stereo in doubt) [Example 146, (1S,2S,3S,5R)-8-[3-(7-chloro-2-methyl-1,3-benzothiazol-6-yl)-5-methyl-1H-pyrazolo[3,4-b]pyrazin-6-yl]-2-fluoro-8-azabicyclo[3.2.1]octan-3-amine] belongs 7.4 nM; to `Cn1cc2c(Cl)c(-c3c[nH]c4nc(N5CCC6(CNC6)C(F)(F)C5)cnc34)ccc2n1` [Example 25, 7-[7-(4-chloro-2-methyl-2H-indazol-5-yl)-5H-pyrrolo[2,3-b]pyrazin-3-yl]-5,5-difluoro-2,7-diazaspiro[3.5]nonane, hydrochloride salt], 52 nM.
Regarding `Cn1cc2c(Cl)c(-c3c[nH]c4nc(N5CC[C@H](N)[C@@H](O)C5)cnc34)ccc2n1` [Example 31, (3S,4S)-4-amino-1-[7-(4-chloro-2-methyl-2H-indazol-5-yl)-5H-pyrrolo[2,3-b]pyrazin-3-yl]piperidin-3-ol, hydrochloride salt], the IC50 is 22 nM.
Same read-out and setting: to `Cc1nc2c(-c3ccc4nn(C)cc4c3Cl)c[nH]c2nc1N1CCC(C)(N)CC1` [Example 14, 1-[7-(4-chloro-2-methyl-2H-indazol-5-yl)-2-methyl-5H-pyrrolo[2,3-b]pyrazin-3-yl]-4-methylpiperidin-4-amine] belongs 89 nM; to `COc1cnc2ccc(-c3n[nH]c4nc(N5[C@@H]6CC[C@H]5C[C@@H](N)C6)c(CO)nc34)c(Cl)c2n1` [Example 113, {6-[endo-3-amino-8-azabicyclo[3.2.1]octan-8-yl]-3-(5-chloro-3-methoxyquinoxalin-6-yl)-1H-pyrazolo[3,4-b]pyrazin-5-yl}methanol], 7.4 nM.
With `Cc1nc2c(-c3ccc4nn(C)cc4c3Cl)[nH]nc2nc1N1[C@@H]2CC[C@H]1CC(N)C2` (stereo partly drawn) [Example 48, endo-8-[3-(4-Chloro-2-methyl-2H-indazol-5-yl)-5-methyl-1H-pyrazolo[3,4-b]pyrazin-6-yl]-8-azabicyclo[3.2.1]octan-3-amine, hydrochloride salt], the half-maximal inhibitory concentration (IC50) was 17 nM.
For `Cn1nc2ccc(-c3n[nH]c4nc(N5[C@@H]6CC[C@H]5[C@@H](F)[C@@H](N)C6)c(CO)nc34)c(Cl)c2c1Cl` [Example 85, {6-[(1S,2S,3S,5R)-3-amino-2-fluoro-8-azabicyclo[3.2.1]octan-8-yl]-3-(3,4-dichloro-2-methyl-2H-indazol-5-yl)-1H-pyrazolo[3,4-b]pyrazin-5-yl}methanol], the IC50 came to 7.5 nM.
Regarding `Cn1nc2ccc(-c3c[nH]c4nc(N5[C@@H]6CC[C@H]5C[C@@H](N)C6)cnc34)c(Cl)c2n1` [Example 51, endo-8-[7-(4-chloro-2-methyl-2H-1,2,3-benzotriazol-5-yl)-5H-pyrrolo[2,3-b]pyrazin-3-yl]-8-azabicyclo[3.2.1]octan-3-amine], the IC50 worked out at 29 nM.
Take `Cn1nc2ccc(-c3c[nH]c4nc(N5[C@@H]6CC[C@H]5C[C@@H](N)C6)cnc34)c(Cl)c2c1CO` [Example 37, (5-{3-[endo-3-amino-8-azabicyclo[3.2.1]octan-8-yl]-5H-pyrrolo[2,3-b]pyrazin-7-yl}-4-chloro-2-methyl-2H-indazol-3-yl)methanol, methanesulfonic acid salt]: the IC50 turned out to be 51 nM.
Turning to `CN(C)C(=O)Cn1cc2c(Cl)c(-c3c[nH]c4nc(N5[C@@H]6CC[C@H]5C[C@@H](N)C6)cnc34)ccc2n1` [Example 49, 2-(5-{3-[endo-3-amino-8-azabicyclo[3.2.1]octan-8-yl]-5H-pyrrolo[2,3-b]pyrazin-7-yl}-4-chloro-2H-indazol-2-yl)-N,N-dimethylacetamide], the IC50 was 15 nM.
In the case of `COc1cnc2ccc(-c3n[nH]c4nc(N5[C@@H]6CC[C@H]5CNC6)c(C)nc34)c(Cl)c2n1` [Example 119, 8-Chloro-7-(6-{3,8-diazabicyclo[3.2.1]octan-8-yl}-5-methyl-1H-pyrazolo[3,4-b]pyrazin-3-yl)-2-methoxyquinoxaline], the IC50 was found to be 14 nM.
Take `COc1cc2c(Cl)c(-c3n[nH]c4nc(N5[C@H]6CC[C@@H]5[C@@H](F)[C@@H](N)C6)c(CO)nc34)ccc2nc1C` [Example 100, {6-[(1R,2S,3S,5S)-3-amino-2-fluoro-8-azabicyclo[3.2.1]octan-8-yl]-3-(5-chloro-3-methoxy-2-methylquinolin-6-yl)-1H-pyrazolo[3,4-b]pyrazin-5-yl}methanol]: the half-inhibitory concentration (IC50) is 12 nM.
`COc1cnc2ccc(-c3n[nH]c4nc(N5[C@H]6CC[C@@H]5[C@@H](F)[C@@H](N)C6)c(C)nc34)c(Cl)c2n1` [Example 95, (1R,2S,3S,5S)-8-[3-(5-chloro-3-methoxyquinoxalin-6-yl)-5-methyl-1H-pyrazolo[3,4-b]pyrazin-6-yl]-2-fluoro-8-azabicyclo[3.2.1]octan-3-amine]: the IC50 came out at 3 nM.
Still for that read-out and setting: to `N[C@H]1C[C@H]2CC[C@@H](C1)N2c1cnc2c(-c3ccc4[nH]c(=O)sc4c3Cl)c[nH]c2n1` [Example 23, 6-{3-[endo-3-amino-8-azabicyclo[3.2.1]octan-8-yl]-5H-pyrrolo[2,3-b]pyrazin-7-yl}-7-chloro-2,3-dihydro-1,3-benzothiazol-2-one, hydrochloride salt] belongs 5.2 nM.
Still for that read-out and setting: as for `CCn1cc2c(Cl)c(-c3n[nH]c4nc(N5[C@H]6CC[C@@H]5[C@@H](F)[C@@H](N)C6)c(C)nc34)ccc2n1` [Example 92, (1R,2S,3S,5S)-8-[3-(4-Chloro-2-ethyl-2H-indazol-5-yl)-5-methyl-1H-pyrazolo[3,4-b]pyrazin-6-yl]-2-fluoro-8-azabicyclo[3.2.1]octan-3-amine], the figure is 8.3 nM.
